Test systems include 786-0 renal; CCRF-CEM leukemia; HS 578T breast; KM12 colon; M14 melanoma; MALME-3M melanoma; MCF7 breast; MDA-MB-435; OVCAR-8 ovarian; RXF 393 renal; SF-268 CNS; SK-MEL-5 melanoma; T-47D breast; UACC-257 melanoma; UO-31 renal.
Assay in all cases: NCI anticancer screen, dose series, 48 h

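96-well plates; 48 h exposure; 5 concentrations. Endpoints by linear interpolation between flanking doses. Not reached: highest tested concentration assigned. TGI denotes the concentration required for complete inhibition of growth.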

Regarding `COc1cc(-c2cc(-c3ccccc3)nc(-c3c(OC)ccc4c(C)cc(=O)oc34)c2)cc(OC)c1OC`, the TGI with 786-0 renal, with CCRF-CEM leukemia, in the assay with HS 578T breast, with KM12 colon, with M14 melanoma and in the assay on MALME-3M melanoma was over 100 µM throughout. Also, the TGI in the assay with MCF7 breast, in the assay with MDA-MB-435, in the assay with OVCAR-8 ovarian, in the assay with RXF 393 renal, with SF-268 CNS and in the assay with SK-MEL-5 melanoma was over 100 µM throughout. The TGI in the assay on T-47D breast, in the assay on UACC-257 melanoma and in the assay on UO-31 renal was over 100 µM each time.
In the case of `COC(=O)c1sc(=S)sc1SCc1ccc(CSc2sc(=S)sc2C(=O)OC)cc1`, the TGI in the assay on 786-0 renal, with CCRF-CEM leukemia, with HS 578T breast, in the assay with KM12 colon, in the assay on M14 melanoma and with MALME-3M melanoma was over 100 µM throughout. Further, the TGI in the assay on MCF7 breast, with MDA-MB-435, in the assay with OVCAR-8 ovarian, with RXF 393 renal, in the assay on SF-268 CNS and in the assay with SK-MEL-5 melanoma was over 100 µM each time. The TGI in the assay on T-47D breast, with UACC-257 melanoma and in the assay on UO-31 renal was over 100 µM in each case.
With `O=c1ccn([C@@H]2C[C@@H]2CO)c(=O)[nH]1`, the TGI in the assay with 786-0 renal, in the assay on CCRF-CEM leukemia, in the assay with HS 578T breast, in the assay with KM12 colon, with M14 melanoma and in the assay on MALME-3M melanoma was over 100 µM throughout. Besides, the TGI in the assay on MCF7 breast, in the assay with MDA-MB-435, in the assay on OVCAR-8 ovarian, with RXF 393 renal, in the assay with SF-268 CNS and with SK-MEL-5 melanoma was over 100 µM in each case. For the same molecule, the TGI in the assay on T-47D breast, in the assay on UACC-257 melanoma and with UO-31 renal was over 100 µM throughout.
As to `O=C(NCCNCCCNC(=O)c1cc(-c2ccccc2)nc2ccccc12)c1cccc(O)c1O`, the TGI in the assay with 786-0 renal is over 100 µM; with CCRF-CEM leukemia it was over 100 µM; with HS 578T breast, over 100 µM; in the assay on KM12 colon, 76.6 µM; with M14 melanoma, 10.4 µM; with MALME-3M melanoma, 20.2 µM. The TGI with MCF7 breast is 15.9 µM; in the assay with MDA-MB-435 it was 13.1 µM; in the assay on RXF 393 renal it was 47.7 µM; in the assay with SF-268 CNS it was 16.4 µM; in the assay with SK-MEL-5 melanoma it was 4.09 µM; with T-47D breast, 10.8 µM. The values for the TGI in the assay on UACC-257 melanoma and with UO-31 renal were 18.5 µM and 14.9 µM, respectively.
Take `N#CC(=C1CCN(CCCC(=O)c2ccc(F)cc2)CC1)c1ccccc1`: the TGI in the assay with 786-0 renal, with CCRF-CEM leukemia, in the assay on HS 578T breast, with KM12 colon, in the assay on MALME-3M melanoma and with MCF7 breast was over 100 µM throughout. The TGI in the assay on MDA-MB-435, with OVCAR-8 ovarian, in the assay on RXF 393 renal, in the assay with SF-268 CNS, with SK-MEL-5 melanoma and in the assay with T-47D breast was over 100 µM in each case. Also, the TGI in the assay on UACC-257 melanoma and with UO-31 renal was over 100 µM throughout.
For `CC(=O)O[C@H]1C(=O)[C@@]2(C)[C@H]([C@H](OC(=O)c3ccccc3)[C@]3(O)C[C@H](OC(=O)[C@H](O)[C@@H](NC(=O)c4cccc(N=[N+]=[N-])c4)c4ccccc4)C(C)=C1C3(C)C)[C@]1(OC(C)=O)CO[C@@H]1C[C@@H]2O`, the TGI is over 25 µM in the assay on 786-0 renal; 0.0681 µM in the assay with CCRF-CEM leukemia; 0.0712 µM in the assay on HS 578T breast; over 25 µM in the assay with KM12 colon; 3.23 µM in the assay on M14 melanoma; over 25 µM with MALME-3M melanoma. For the same molecule, the TGI in the assay on MCF7 breast was over 25 µM; in the assay on MDA-MB-435, 0.00412 µM; with OVCAR-8 ovarian, over 25 µM; in the assay with RXF 393 renal it was 0.897 µM; with SF-268 CNS it was over 25 µM; in the assay with SK-MEL-5 melanoma, 3.11 µM. Also, the TGI with T-47D breast and in the assay on UO-31 renal was over 25 µM throughout.
Turning to `COC(=O)C1CN=CN1CCc1ccccc1` (stereo not given), the TGI in the assay with 786-0 renal, in the assay on CCRF-CEM leukemia, in the assay with HS 578T breast, with KM12 colon, with M14 melanoma and with MALME-3M melanoma was over 100 µM throughout. In addition, the TGI in the assay on MCF7 breast, in the assay on MDA-MB-435, in the assay on OVCAR-8 ovarian, in the assay on RXF 393 renal, in the assay on SK-MEL-5 melanoma and in the assay on T-47D breast was over 100 µM throughout. Further, the TGI with UACC-257 melanoma and with UO-31 renal was over 100 µM each time.
For the molecule `CCOC(=O)c1nc2ccccc2nc1NCc1cc(OC)c(OC)c(OC)c1`, the TGI in the assay on 786-0 renal, in the assay on CCRF-CEM leukemia, in the assay on HS 578T breast, with KM12 colon, in the assay on MALME-3M melanoma and in the assay on MCF7 breast was over 100 µM in each case. In addition, the TGI in the assay on MDA-MB-435 was 71.8 µM; in the assay on OVCAR-8 ovarian, over 100 µM; in the assay on RXF 393 renal it was over 100 µM; in the assay on SF-268 CNS, over 100 µM; with SK-MEL-5 melanoma, over 100 µM; with T-47D breast, over 100 µM. The TGI in the assay on UACC-257 melanoma and in the assay with UO-31 renal was over 100 µM in each case.
